Experimental data published in ChEMBL document CHEMBL4152339, “Design and synthesis of novel 1H-tetrazol-5-amine based potent antimicrobial agents: DNA topoisomerase IV and gyrase affinity evaluation supported by molecular docking studies” (Eur J Med Chem, 2018).
Converted amounts (≈) assume the structure as drawn.

Columns and labels:
Type in all cases: functional
Staphylococcus aureus [1] = assay: Antibacterial activity against Staphylococcus aureus NCTC 4163 after 18 hrs by CLSI disc diffusion method; details: NCTC 4163, 18 h
Bacillus cereus = assay: Antibacterial activity against Bacillus cereus ATCC 11778 after 18 hrs by CLSI disc diffusion method; details: ATCC 11778, 18 h
Bacillus spizizenii = assay: Antibacterial activity against Bacillus subtilis ATCC 6633 after 18 hrs by CLSI disc diffusion method; details: ATCC 6633, 18 h
[2] = test system: Bordetella bronchiseptica; assay: Antibacterial activity against Bordetella bronchiseptica ATCC 4617 after 18 hrs by CLSI disc diffusion method; details: ATCC 4617, 18 h
[3] = test system: Staphylococcus epidermidis; assay: Antibacterial activity against Staphylococcus epidermidis 510 after 18 hrs by CLSI disc diffusion method; details: Staphylococcus epidermidis, 510, 18 h
[4] = test system: Staphylococcus epidermidis; assay: Antibacterial activity against Staphylococcus epidermidis 431 after 18 hrs by CLSI disc diffusion method; details: Staphylococcus epidermidis, 431, 18 h
Pseudomonas aeruginosa [5] = assay: Antibacterial activity against Pseudomonas aeruginosa 16m after 18 hrs by CLSI disc diffusion method
Staphylococcus aureus [6] = assay: Antibacterial activity against Staphylococcus aureus 495 after 18 hrs by CLSI disc diffusion method; details: Staphylococcus aureus, 495, 18 h
Enterococcus faecalis = assay: Antibacterial activity against Enterococcus faecalis ATCC 29212 after 18 hrs by CLSI disc diffusion method; details: ATCC 29212, 18 h
[7] = test system: Staphylococcus epidermidis; assay: Antibacterial activity against Staphylococcus epidermidis ATCC 35984 after 18 hrs by CLSI […] method; details: ATCC 35984, 18 h
Enterococcus hirae = assay: Antibacterial activity against Enterococcus hirae ATCC 10541 after 18 hrs by CLSI disc diffusion method; details: ATCC 10541, 18 h
Staphylococcus aureus [8] = assay: Antibacterial activity against Staphylococcus aureus 572 after 18 hrs by CLSI disc diffusion method; details: Staphylococcus aureus, 572, 18 h
Staphylococcus aureus [9] = assay: Antibacterial activity against Staphylococcus aureus 497 after 18 hrs by CLSI disc diffusion method; details: Staphylococcus aureus, 497, 18 h
Escherichia coli [10] = assay: Antibacterial activity against Escherichia coli ML 16 after 18 hrs by CLSI disc diffusion method; details: ML 16, 18 h
Escherichia coli [11] = assay: Antibacterial activity against Escherichia coli ML 17 after 18 hrs by CLSI disc diffusion method; details: ML 17, 18 h
Escherichia coli [12] = assay: Antibacterial activity against Escherichia coli ML 15 after 18 hrs by CLSI disc diffusion method; details: ML 15, 18 h
Escherichia coli [13] = assay: Antibacterial activity against Escherichia coli ML 6 after 18 hrs by CLSI disc diffusion method; details: ML 6, 18 h
Proteus vulgaris = assay: Antibacterial activity against Proteus vulgaris NCTC 4635 after 18 hrs by CLSI disc diffusion method; details: NCTC 4635, 18 h
[14] = test system: Staphylococcus epidermidis; assay: Antibacterial activity against Staphylococcus epidermidis 469 after 18 hrs by CLSI disc diffusion method; details: Staphylococcus epidermidis, 469, 18 h
[15] = test system: Staphylococcus epidermidis; assay: Antibacterial activity against Staphylococcus epidermidis 471 after 18 hrs by CLSI disc diffusion method; details: Staphylococcus epidermidis, 471, 18 h
Pseudomonas aeruginosa [16] = assay: Antibacterial activity against Pseudomonas aeruginosa 7m after 18 hrs by CLSI disc diffusion method
Staphylococcus aureus [17] = assay: Antibacterial activity against Staphylococcus aureus ATCC 25923 after 18 hrs by CLSI disc diffusion method; details: ATCC 25923, 18 h
Staphylococcus aureus [18] = assay: Antibacterial activity against Staphylococcus aureus 496 after 18 hrs by CLSI disc diffusion method; details: Staphylococcus aureus, 496, 18 h
Staphylococcus aureus [19] = assay: Antibacterial activity against Staphylococcus aureus 586 after 18 hrs by CLSI disc diffusion method; details: Staphylococcus aureus, 586, 18 h
Staphylococcus aureus [20] = assay: Antibacterial activity against Staphylococcus aureus 498 after 18 hrs by CLSI disc diffusion method; details: Staphylococcus aureus, 498, 18 h
[21] = test system: Staphylococcus epidermidis; assay: Antibacterial activity against Staphylococcus epidermidis 433 after 18 hrs by CLSI disc diffusion method; details: Staphylococcus epidermidis, 433, 18 h
Micrococcus luteus [22] = assay: Antibacterial activity against Micrococcus luteus ATCC 9341 after 18 hrs by CLSI disc diffusion method; details: ATCC 9341, 18 h
Pseudomonas aeruginosa [23] = assay: Antibacterial activity against Pseudomonas aeruginosa 12m after 18 hrs by CLSI disc diffusion method
Escherichia coli [24] = assay: Antibacterial activity against Escherichia coli ML 9 after 18 hrs by CLSI disc diffusion method; details: ML 9, 18 h
[25] = test system: Staphylococcus epidermidis; assay: Antibacterial activity against Staphylococcus epidermidis ATCC 12228 after 18 hrs by CLSI disc diffusion method; details: ATCC 12228, 18 h
Pseudomonas aeruginosa [26] = assay: Antibacterial activity against Pseudomonas aeruginosa 31m after 18 hrs by CLSI disc diffusion method
Pseudomonas aeruginosa [27] = assay: Antibacterial activity against Pseudomonas aeruginosa 18m after 18 hrs by CLSI disc diffusion method
Staphylococcus aureus [28] = assay: Antibacterial activity against Staphylococcus aureus ATCC 6538 after 18 hrs by CLSI disc diffusion method; details: ATCC 6538, 18 h
Pseudomonas aeruginosa [29] = assay: Antibacterial activity against Pseudomonas aeruginosa ATCC 15442 after 18 hrs by CLSI disc diffusion method; details: ATCC 15442, 18 h
Pseudomonas aeruginosa [30] = assay: Antibacterial activity against Pseudomonas aeruginosa 11m after 18 hrs by CLSI disc diffusion method
[31] = test system: Staphylococcus epidermidis; assay: Antibacterial activity against Staphylococcus epidermidis 511 after 18 hrs by CLSI disc diffusion method; details: Staphylococcus epidermidis, 511, 18 h
Escherichia coli [32] = assay: Antibacterial activity against Escherichia coli ML 8 after 18 hrs by CLSI disc diffusion method; details: ML 8, 18 h
Escherichia coli [33] = assay: Antibacterial activity against Escherichia coli ML 12 after 18 hrs by CLSI disc diffusion method; details: ML 12, 18 h
[34] = test system: Staphylococcus epidermidis; assay: Antibacterial activity against Staphylococcus epidermidis 432 after 18 hrs by CLSI disc diffusion method; details: Staphylococcus epidermidis, 432, 18 h
Escherichia coli [35] = assay: Antibacterial activity against Escherichia coli ML 5 after 18 hrs by CLSI disc diffusion method; details: ML 5, 18 h
Escherichia coli [36] = assay: Antibacterial activity against Escherichia coli ATCC 10538 after 18 hrs by CLSI disc diffusion method; details: ATCC 10538, 18 h
Micrococcus luteus [37] = assay: Antibacterial activity against Micrococcus luteus ATCC 10240 after 18 hrs by CLSI disc diffusion method; details: ATCC 10240, 18 h
Staphylococcus aureus [38] = assay: Antibacterial activity against Staphylococcus aureus 585 after 18 hrs by CLSI disc diffusion method; details: Staphylococcus aureus, 585, 18 h
Pseudomonas aeruginosa [39] = assay: Antibacterial activity against Pseudomonas aeruginosa 6m after 18 hrs by CLSI disc diffusion method
Pseudomonas aeruginosa [40] = assay: Antibacterial activity against Pseudomonas aeruginosa 10m after 18 hrs by CLSI disc diffusion method
Staphylococcus aureus [41] = assay: Antibacterial activity against Staphylococcus aureus 537 after 18 hrs by CLSI disc diffusion method; details: Staphylococcus aureus, 537, 18 h
[42] = test system: Staphylococcus epidermidis; assay: Antibacterial activity against Staphylococcus epidermidis 423 after 18 hrs by CLSI disc diffusion method; details: Staphylococcus epidermidis, 423, 18 h
Pseudomonas aeruginosa [43] = assay: Antibacterial activity against Pseudomonas aeruginosa ATCC 27853 after 18 hrs by CLSI disc diffusion method; details: ATCC 27853, 18 h

Question: How did the MIC (Staphylococcus aureus [1]) turn out when `O=C(O)n1nnnc1Nn1cnnc1` was run?
Answer: 20 µM (≈ 3.92 µg/mL)

Question: And the MIC (Bacillus cereus)?
Answer: 10 µM (≈ 1.96 µg/mL)

Question: What about the MIC (Bacillus spizizenii) of the same compound?
Answer: 5 µM (≈ 0.981 µg/mL)

Question: What about the MIC [2] of the same compound?
Answer: 652 µM (≈ 128 µg/mL)

Question: And the MIC [3]?
Answer: 20 µM (≈ 3.92 µg/mL)

Question: What about the MIC [4] of the same compound?
Answer: 20 µM (≈ 3.92 µg/mL)

Question: And the MIC (Pseudomonas aeruginosa [5])?
Answer: 326 µM (≈ 63.9 µg/mL)

Question: And the MIC (Staphylococcus aureus [6])?
Answer: 41 µM (≈ 8.04 µg/mL)

Question: What about the MIC (Enterococcus faecalis) of the same compound?
Answer: 10 µM (≈ 1.96 µg/mL)

Question: And the MIC [7]?
Answer: 5 µM (≈ 0.981 µg/mL)

Question: What about the MIC (Enterococcus hirae) of the same compound?
Answer: 10 µM (≈ 1.96 µg/mL)

Question: What about the MIC (Staphylococcus aureus [8]) of the same compound?
Answer: 41 µM (≈ 8.04 µg/mL)

Question: What about the MIC (Staphylococcus aureus [9]) of the same compound?
Answer: 82 µM (≈ 16.1 µg/mL)

Question: And the MIC (Escherichia coli [10])?
Answer: 326 µM (≈ 63.9 µg/mL)

Question: What about the MIC (Escherichia coli [11]) of the same compound?
Answer: 326 µM (≈ 63.9 µg/mL)

Question: What about the MIC (Escherichia coli [12]) of the same compound?
Answer: 1300 µM (≈ 256 µg/mL)

Question: What about the MIC (Escherichia coli [13]) of the same compound?
Answer: 1300 µM (≈ 256 µg/mL)

Question: What about the MIC (Proteus vulgaris) of the same compound?
Answer: 10 µM (≈ 1.96 µg/mL)

Question: And the MIC [14]?
Answer: 20 µM (≈ 3.92 µg/mL)

Question: What about the MIC [15] of the same compound?
Answer: 41 µM (≈ 8.04 µg/mL)

Question: What about the MIC (Pseudomonas aeruginosa [16]) of the same compound?
Answer: 326 µM (≈ 63.9 µg/mL)

Question: And the MIC (Staphylococcus aureus [17])?
Answer: 20 µM (≈ 3.92 µg/mL)

Question: And the MIC (Staphylococcus aureus [18])?
Answer: 82 µM (≈ 16.1 µg/mL)

Question: And the MIC (Staphylococcus aureus [19])?
Answer: 82 µM (≈ 16.1 µg/mL)

Question: And the MIC (Staphylococcus aureus [20])?
Answer: 82 µM (≈ 16.1 µg/mL)

Question: And the MIC [21]?
Answer: 20 µM (≈ 3.92 µg/mL)

Question: And the MIC (Micrococcus luteus [22])?
Answer: 20 µM (≈ 3.92 µg/mL)

Question: And the MIC (Pseudomonas aeruginosa [23])?
Answer: 326 µM (≈ 63.9 µg/mL)

Question: What about the MIC (Escherichia coli [24]) of the same compound?
Answer: 326 µM (≈ 63.9 µg/mL)

Question: And the MIC [25]?
Answer: 10 µM (≈ 1.96 µg/mL)

Question: What about the MIC (Pseudomonas aeruginosa [26]) of the same compound?
Answer: 326 µM (≈ 63.9 µg/mL)

Question: And the MIC (Pseudomonas aeruginosa [27])?
Answer: 652 µM (≈ 128 µg/mL)

Question: And the MIC (Staphylococcus aureus [28])?
Answer: 20 µM (≈ 3.92 µg/mL)

Question: What about the MIC (Pseudomonas aeruginosa [29]) of the same compound?
Answer: 1300 µM (≈ 256 µg/mL)

Question: What about the MIC (Pseudomonas aeruginosa [30]) of the same compound?
Answer: 652 µM (≈ 128 µg/mL)

Question: What about the MIC [31] of the same compound?
Answer: 20 µM (≈ 3.92 µg/mL)

Question: And the MIC (Escherichia coli [32])?
Answer: 326 µM (≈ 63.9 µg/mL)

Question: And the MIC (Escherichia coli [33])?
Answer: > 1300 µM

Question: What about the MIC [34] of the same compound?
Answer: 41 µM (≈ 8.04 µg/mL)

Question: What about the MIC (Escherichia coli [35]) of the same compound?
Answer: 326 µM (≈ 63.9 µg/mL)

Question: And the MIC (Escherichia coli [36])?
Answer: 20 µM (≈ 3.92 µg/mL)

Question: And the MIC (Micrococcus luteus [37])?
Answer: 20 µM (≈ 3.92 µg/mL)

Question: And the MIC (Staphylococcus aureus [38])?
Answer: 82 µM (≈ 16.1 µg/mL)

Question: What about the MIC (Pseudomonas aeruginosa [39]) of the same compound?
Answer: 326 µM (≈ 63.9 µg/mL)

Question: What about the MIC (Pseudomonas aeruginosa [40]) of the same compound?
Answer: 326 µM (≈ 63.9 µg/mL)

Question: What about the MIC (Staphylococcus aureus [41]) of the same compound?
Answer: 82 µM (≈ 16.1 µg/mL)

Question: What about the MIC [42] of the same compound?
Answer: 20 µM (≈ 3.92 µg/mL)

Question: What about the MIC (Pseudomonas aeruginosa [43]) of the same compound?
Answer: 1300 µM (≈ 256 µg/mL)
